The numbers were not newly measured in patent publication US6699701B1, “Method and device for sanitation using bacteriophages” (priority 2000, dated 2004), which cites them from elsewhere.

The test system of this data set is bacterial counts. The following applies: fresh-cut fruits, most effective chemical sanitizer.

With `OO` [hydrogen peroxide], the “maximum reduction rate in bacterial counts” value is no more than 1.3 logs.
